Two compounds from patent publication US10369133B2, “Immunosuppressive compounds and therapeutics” (UNIVERSITY OF TENNESSEE RESEARCH FOUNDATION, priority 2013, dated 2019) can be followed below.

Data set [1] can be described thus: Aqueous solubility of JP-3-110 by HPLC (saturated water solution). The format is physicochemical. The protocol: The column was Inertsil ODS-3, 250×4.6 mm, 5 μm. […] From top to bottom, 0.2, 2, 20, 200, 2000 μg/mL of JP-3-110 in acetonitrile (ACN).
(§1) Quinic acid amide analog TNP was synthesized as described before. See Zeng et al., 2009, Bioorganic & Medicinal Chemistry Letters, 19:5458-5460. JP-3-110 was synthesized by conjugating TNP with MPA and the structure of JP-3-110 was confirmed by 1H NMR. FIG. 1B. […] FIGS. 7A-7D. To improve solubility, the inventors conceived to introduce aqueous solubility enhancing groups such as ionizable groups —CO2H, —SO3H or amino groups, sugars at positions R1, R2 and/or R10 of Formulas II and III. Such introduction would require routine skills. The ester bond of JP-3-110 is susceptible to hydrolytic degradation, releasing TNP and MPA as two single drugs. More than 40% of JP-3-110 in the aqueous solution will be degraded when stored in 4° C. for 1 week (FIGS. 9A-9C).

A short description of data set [2]: Hydrolytic stability of JP-3-110 aqueous solution by HPLC. As to conditions: aqueous solution (0.4 mg/mL) stored in 4° C. for 1 week. The format is physicochemical. The protocol: The peak at 2 minutes was denoted as MPA degraded from JP-3-110.
as §1

In another data set the test system is NF-κB. Description: NF-κB SEAP reporter gene assay in INS-1E cells. The settings on record: for NF-κB activities in INS-1E cells: printed "at 504" (FIG. 2B: 5 μM), cytokine cocktail 10 ng/mL TNFα, 5 ng/mL IL-1β, 10 ng/mL IFN-γ, 24 hours. The format is cell-based, rat. The protocol:
Briefly, a plasmid construct containing NF-kB promoter and SEAP gene was transferred into INS-1E cells by lipofectamine. SEAP was then expressed and secreted into culture supernatant and allowed […] detection using a substrate PNPP under 405 nm. […] NF-kB activity was measured 24 hours after addition of cytokine cocktail (10 ng/mL TNFα, 5 ng/mL IL-1β and 10 ng/mL IFN-γ) alone or with JP-3-110 (5 μM) or TNP (5 μM) or MPA (5 μM). Blank, no cytokine stimulation. Cyt, cytokine cocktail. Results are presented as the mean±S.D., n=3.
INS-1E cells which were stably transfected with the SEAP gene containing the response-element for NF-κB were used to screen for anti-inflammatory activity. Briefly, 10^6 cells/well were seeded overnight followed by treatment with 10 ng/mL human recombinant TNFα and either TNP or hybrid drug JP-3-110 (1 μM). SEAP activity was measured 18 h later in supernatant samples (50 µL) using the NF-κB SEAPorter™ Assay Kit (IMGENEX, San Diego, Calif.) and a microplate luminometer. SEAP activity was normalized to the total protein content.

Another data set has as its system human CD3+ T cells. Description: Mixed lymphocyte reaction: proliferation of PHA-stimulated T cells. Format: cell-based. As to conditions: PHA 1 μg/mL; 5 μM; in 4 days. The protocol:
Briefly, human peripheral blood mononuclear cells PBMCs were isolated from human buffy coat using Ficoll-Paque. […] Results are presented as the mean±S.D., n=6.
PBMCs were isolated using Ficoll Paque. T cells were isolated from PBMCs using Dynabeads for. T cells were stimulated with PHA (1 μg/ml) for 24 h alone or in the presence of TNP (5 μM) or JP-3-110 (5 μM) for additional 4 days. The total number of PBMCs was measured using T4 Automatic Cell Counter (Nexcelom, Lawrence, Mass.). The extent of T cell activation was determined by measuring the level of IL-2, IL-2sRa, TNFα and IFN-γ in the medium using ELISA at indicated time.
Mixed lymphocytes reaction was used to determine the immunosuppressive effects of MPA and JP-3-110. T cells were purified using dynabeads from peripheral blood mononuclear cells (PBMCs), which were initially isolated from human buffy coat (FIG. 8A). […] The levels of IL-2, IL-2sRa, TNFα and IFNγ were detected by ELISA to study the effects of JP-3-110 and MPA on T cell activation.

Another data set relates to human PBMCs in NSG mice. Description: Immunosuppressive effect in humanized NSG mice. The format is in vivo, mouse. The settings on record: for amount of human CD3+ T cells in the mouse spleen / serum human IgG level: 50 mg/kg intraperitoneally, consecutive 7 shots, compared with saline. The protocol:
Human PBMCs (5×10^6/mouse) were injected intraperitoneally into NSG mice to introduce human immunity. Sections were stained to indicate human CD3+ T cells (red) and counterstained with DAPI (blue). […] Results are presented as the mean±S.D., n=5.
Human PBMCs were isolated from buffy coats by gradient centrifugation using Ficoll Paque. The T cells and B cells of PBMCs were stained with FITC conjugated CD3 antibody and APC conjugated CD19 antibody, respectively, and characterized using flow cytometry. The PBMCs were infused into diabetic NSG mice at the concentration of 5×10^6/mouse to establish human immunity. The settlement of T cells in the spleen was assessed by immunofluorescence staining. Briefly, spleen were isolated, washed with PBS, fixed in 4% paraformaldehyde overnight, and embedded in optimal cutting temperature compound. Frozen sections of 5 μm thickness were cut. The slides were stained with rabbit anti-human CD3 primary antibody (1:200) at 4° C. overnight and Alexa Fluor 568 conjugated goat anti-rabbit secondary antibody (1:500) at room temperature for 1 h. The function of B cells was assessed by measuring human IgG concentration in the mouse blood.
To test the immunosuppressive effect of JP-3-110 in vivo, a humanized mouse model was used. Briefly, human PBMCs (5×10^6/mouse) were adoptively transferred into immunodeficient NSG mice to build human immunity. The human IgG level in the serum and human CD3+ T cell staining in the spleen was used to confirm the existence of human immunity (FIG. 8B). JP-3-110 and MPA was administrated intraperitoneally at 50 mg/kg for consecutive 7 shots.

Molecules are shown by their SMILES. Values joined by “and” are separate entries in the source; they are usually repeats but may differ in a detail not shown here. Equal values may be shown once.

Turning to `CCCCNC(=O)[C@]1(O)C[C@@H](O)[C@@H](O)[C@H](OC(=O)CC/C(C)=C/Cc2c(OC)c(C)c3c(c2OC(C)=O)C(=O)OC3)C1` [JP-3-110, (1R,2R,3R,5S)-5-(butylcarbamoyl)-2,3,5-trihydroxycyclohexyl (E)-6-(4-acetoxy-6-methoxy-7-methyl-3-oxo-1,3-dihydroisobenzofuran-5-yl)-4-methylhex-4-enoate], the “solubility class according to USP solubility criteria” value in data set [1] is recorded as “practically insoluble”. Moreover, the solubility in data set [1] (thermodynamic from solid, by HPLC) is 480 µg/mL and 800 µM. Also, in data set [2], the “JP-3-110 degraded in aqueous solution” value is “More than 40%”. Moreover, in the data set with NF-κB (MPA, TNP and JP-3-110 compared, cytokine cocktail), the “reduction in NF-κB activities compared among the three groups” value is “most reduction”. Besides, the “NF-κB activities in INS-1E cells” value in the data set with NF-κB is “significantly reduced”. The “proliferation of T cells” value in the data set on human CD3+ T cells is recorded as “equally potent as MPA”. Also, in the data set on human PBMCs in NSG mice, the “amount of human CD3+ T cells in the mouse spleen” value is listed as “significantly reduced” and the “serum human IgG level” value is on record as “significantly reduced”.

`COc1c(C)c2c(c(O)c1C/C=C(\C)CCC(=O)O)C(=O)OC2` [MPA, mycophenolic acid, reference compound]: in the data set with NF-κB, the “NF-κB activities in INS-1E cells” value is recorded as “significantly reduced”. For the same compound, in the data set with human CD3+ T cells, the “proliferation of T cells” value is listed as “suppress the proliferation of T cells”. For the same compound, in the data set on human PBMCs in NSG mice, the “amount of human CD3+ T cells in the mouse spleen” value is “significantly reduced” and the “serum human IgG level” value is “significantly reduced”. In the data set on human PBMCs in NSG mice (humanized NSG mice, 50 mg/kg each), the “immunosuppressive effect, MPA compared with JP-3-110” value was “slightly better immunosuppressive effect than JP-3-110”.
